Assay results taken from patent US20240002416A1 (Rheinische-Friedrich-Wilhelms-Universität Bonn, priority 2020, published 2024).
One block for each compound: values may come before it.

Key:
Format in all cases: cell-based
human MRGPRX4-83L [1] = target: T1, human MRGPRX4-83L (Homo sapiens, UniProt Q96LA9); experiment: β-arrestin assay (CHO β-arrestin ARMS1-ProLink 2 human MRGPRX4 83L); settings: Table 1; for Emax: efficacy based on maximal effect of 100 nM B-16 (set as 100%), read-out: Emax; for EC50: β-arrestin recruitment, CHO cells, MRGPRX4-83L, means of 3-4 experiments, read-out: EC50 ± SEM; for IC50: inhibition of the effect of 2.6 μM B-16
T1 construct: host or cells: CHO β-arrestin cells
T1 sequence (Q96LA9 whole entry): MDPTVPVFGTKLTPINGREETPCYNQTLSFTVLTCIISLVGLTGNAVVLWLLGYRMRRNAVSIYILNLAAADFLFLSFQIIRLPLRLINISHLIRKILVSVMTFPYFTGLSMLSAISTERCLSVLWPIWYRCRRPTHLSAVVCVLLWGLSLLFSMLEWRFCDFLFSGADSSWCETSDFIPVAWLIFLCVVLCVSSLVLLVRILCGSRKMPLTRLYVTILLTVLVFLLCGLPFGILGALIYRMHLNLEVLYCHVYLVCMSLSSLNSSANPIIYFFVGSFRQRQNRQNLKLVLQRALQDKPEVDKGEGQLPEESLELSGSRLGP
Experimental: (§1) For β-arrestin recruitment assays, recombinant Chinese hamster ovary (CHO) cells expressing the human MRGPRX4 were used (DiscoverX/Eurofins) which allowed to measure β-galactosidase complementation upon β-arrestin recruitment. For calcium mobilization assays, recombinant astrocytes expressing MRGPX4-83L, or LN229 glioblastoma cells natively expressing the MRGPRX4-83S, were used.
(§2) The assays were performed as previously described for other rhodopsin-like GPCRs (Müller, C.E.; 8-Benzamidochromen-4-one-2-carboxylic acids: potent and selective agonists for the orphan G protein-coupled receptor GPR35. J. Med. Chem. 2013, 56:5182-97; Müller, C.E. Molecular Recognition of Agonists and Antagonists by the Nucleotide-Activated G Protein-Coupled P2Y2 Receptor. J. Med. Chem. 2017, 60:8425-8440).

human MRGPRX4-83L [2] = target: T1, human MRGPRX4-83L; experiment: Calcium assay (human MRGPRX4 83L), recombinant astrocytes; settings: for EC50 / Emax: Table 1; for EC50: calcium mobilization, MRGPRX4-83L, read-out: EC50 ± SEM; for Emax: efficacy based on maximal effect of 1 μM B-16 (set as 100%), read-out: Emax
Experimental: as §1, §2

MRGPRX4-83S [3] = target: T2, MRGPRX4-83S (Homo sapiens, UniProt Q96LA9, L83S); experiment: β-arrestin assay (CHO β-arrestin human MRGPRX4-83S); set-up: host or cells: CHO β-arrestin cells; settings: for Emax: efficacy based on 100 nM B-16 (set as 100%), read-out: Emax; for EC50: β-arrestin recruitment, CHO cells, MRGPRX4-83S, read-out: EC50 ± SEM
T2 sequence (Q96LA9 whole entry L83S): as the sequence (Q96LA9 whole entry) above, with L83S counted along it
Experimental: as §1, §2

MRGPRX4-83S [4] = target: T2, MRGPRX4-83S; experiment: Calcium assay (human glioblastoma LN229 cells expressing the MRGPRX4-83S); set-up: LN229 glioblastoma cells natively expressing the MRGPRX4-83S; endogenous in cells; host or cells: LN229 human glioblastoma cells; settings: for Emax: LN-229, efficacy based on 30 μM H-1 (set as 100%), read-out: Emax; for EC50: calcium mobilization, LN229 cells, MRGPRX4-83S, read-out: EC50 ± SEM
Experimental: as §1, §2

SMILES: C#CCn1c(=O)c2c(nc(CCc3ccccc3Br)n2C)n(CCCCP(=O)(O)OCC)c1=O [D-1, Ethyl hydrogen (4-(8-(2-bromophenethyl)-7-methyl-2,6-dioxo-1-(prop-2-yn-1-yl)-1,2,6,7-tetrahydro-3H-purin-3-yl)butyl)phosphonate]
- Emax (human MRGPRX4-83L [1]): 108%
- EC50 (human MRGPRX4-83L [1]): 0.395 ± 0.126 µM
- EC50 (human MRGPRX4-83L [2]): 0.0555 ± 0.009 µM
- Emax (human MRGPRX4-83L [2]): 115%
- Emax (MRGPRX4-83S [3]; Table 2): 120%
- EC50 (MRGPRX4-83S [3]; Table 2): 114 ± 23 nM
- Emax (MRGPRX4-83S [4]; Table 2): 105%
- EC50 (MRGPRX4-83S [4]; Table 2): 0.134 ± 0.012 µM

SMILES: CCOP(=O)(CCCCn1c(=O)n(CC)c(=O)c2[nH]c(COc3ccccc3)nc21)OCC [C-10, Diethyl (4-(1-ethyl-2,6-dioxo-8-(phenoxymethyl)-1,2,6,7-tetrahydro-3H-purin-3-yl)butyl)phosphonate]
- IC50 (human MRGPRX4-83L [1]): > 10 µM
- EC50 (human MRGPRX4-83L [1]): > 10 µM
- IC50 (human MRGPRX4-83L [2]): > 10 µM
- EC50 (human MRGPRX4-83L [2]): > 10 µM
- EC50 (MRGPRX4-83S [3]; Table 2): > 10000 nM

SMILES: CCCn1c(=O)c2[nH]c(C3CCCC3)nc2n(CCCCP(=O)(O)O)c1=O [J-2, (4-(8-Cyclopentyl-2,6-dioxo-1-propyl-1,2,6,7-tetrahydro-3H-purin-3-yl)butyl)phosphonic acid]
- IC50 (human MRGPRX4-83L [1]): > 10 µM
- EC50 (human MRGPRX4-83L [1]): > 10 µM
- IC50 (human MRGPRX4-83L [2]): > 50 µM
- EC50 (human MRGPRX4-83L [2]): > 50 µM
- Emax (MRGPRX4-83S [3]; Table 2): 76%
- EC50 (MRGPRX4-83S [3]; Table 2): 6360 ± 1630 nM
- EC50 (MRGPRX4-83S [4]; Table 2): > 10 µM

SMILES: C#CCn1c(=O)c2c(nc(-c3cccc(OC)c3)n2C)n(CCCOP(=O)(O)O)c1=O [A-1, 3-(8-(3-Methoxyphenyl)-7-methyl-2,6-dioxo-1-(prop-2-yn-1-yl)-1,2,6,7-tetrahydro-3H-purin-3-yl)propyl dihydrogen phosphate, reference compound]
- IC50 (human MRGPRX4-83L [1]): > 10 µM
- EC50 (human MRGPRX4-83L [1]): > 10 µM
- IC50 (human MRGPRX4-83L [2]): > 10 µM
- EC50 (human MRGPRX4-83L [2]): > 10 µM
- EC50 (MRGPRX4-83S [4]; Table 2): > 10 µM

SMILES: C#CCn1c(=O)c2[nH]c(CCc3ccc(OC)c(OC)c3)nc2n(CCCCP(=O)(OCC)OCC)c1=O [C-8, Diethyl (4-(8-(3,4-dimethoxyphenethyl)-2,6-dioxo-1-(prop-2-yn-1-yl)-1,2,6,7-tetrahydro-3H-purin-3-yl)butyl)phosphonate]
- IC50 (human MRGPRX4-83L [1]): > 10 µM
- EC50 (human MRGPRX4-83L [1]): > 10 µM
- IC50 (human MRGPRX4-83L [2]): > 10 µM
- EC50 (human MRGPRX4-83L [2]): > 10 µM
- EC50 (MRGPRX4-83S [3]; Table 2): > 10000 nM

Second part, the compound after the results:

- value in brackets beside IC50 >10 (human MRGPRX4-83L [1]; bracketed value ± spread in IC50 column, not defined, inhibition of 2.6 μM B-16): −27 ± 9
- IC50 (human MRGPRX4-83L [1]): > 10 µM
- EC50 (human MRGPRX4-83L [1]): > 10 µM
- EC50 (human MRGPRX4-83L [2]): 3.8 ± 0.19 µM
- Emax (human MRGPRX4-83L [2]): 104%
- Emax (MRGPRX4-83S [3]; Table 2): 102%
- EC50 (MRGPRX4-83S [3]; Table 2): 1190 ± 50 nM
- Emax (MRGPRX4-83S [4]; Table 2): 94%
- EC50 (MRGPRX4-83S [4]; Table 2): 0.214 ± 0.051 µM
SMILES: CCn1c(=O)c2[nH]c(CCc3cccc(OC)c3)nc2n(CCCCP(=O)(O)O)c1=O [B-12, (4-(1-Ethyl-8-(3-methoxyphenethyl)-2,6-dioxo-1,2,6,7-tetrahydro-3H-purin-3-yl)butyl)phosphonic acid]

- IC50 (human MRGPRX4-83L [1]): > 10 µM
- EC50 (human MRGPRX4-83L [1]): > 10 µM
- EC50 (human MRGPRX4-83L [2]): 3.25 ± 0.61 µM
- Emax (human MRGPRX4-83L [2]): 110%
- Emax (MRGPRX4-83S [3]; Table 2): 84%
- EC50 (MRGPRX4-83S [3]; Table 2): 399 ± 115 nM
- Emax (MRGPRX4-83S [4]; Table 2): 92%
- EC50 (MRGPRX4-83S [4]; Table 2): 0.134 ± 0.017 µM
SMILES: C#CCn1c(=O)c2[nH]c(CCc3ccccc3)nc2n(CCCCP(=O)(O)O)c1=O [B-1, (4-(2,6-Dioxo-8-phenethyl-1-(prop-2-yn-1-yl)-1,2,6,7-tetrahydro-3H-purin-3-yl)butyl)phosphonic acid]

- IC50 (human MRGPRX4-83L [1]): > 10 µM
- EC50 (human MRGPRX4-83L [1]): > 10 µM
- IC50 (human MRGPRX4-83L [2]): > 10 µM
- EC50 (human MRGPRX4-83L [2]): > 10 µM
- EC50 (MRGPRX4-83S [3]; Table 2): > 10000 nM
SMILES: C#CCn1c(=O)c2[nH]c(CCc3ccccc3Br)nc2n(CCCCS(=O)(=O)O)c1=O [E-1, 4-(8-(2-Bromophenethyl)-2,6-dioxo-1-(prop-2-yn-1-yl)-1,2,6,7-tetrahydro-3H-purin-3-yl)butane-1-sulfonic acid]

- Emax (human MRGPRX4-83L [1]): 132%
- EC50 (human MRGPRX4-83L [1]): 0.0935 ± 0.0054 µM
- EC50 (human MRGPRX4-83L [2]): 0.00635 ± 0.00167 µM
- Emax (human MRGPRX4-83L [2]): 112%
- Emax (MRGPRX4-83S [3]; Table 2): 128%
- EC50 (MRGPRX4-83S [3]; Table 2): 0.296 ± 0.033 nM
- Emax (MRGPRX4-83S [4]; Table 2): 108%
- EC50 (MRGPRX4-83S [4]; Table 2): 0.000501 ± 7.6e-05 µM
SMILES: C#CCn1c(=O)c2c(nc(CCc3ccccc3Br)n2C)n(CCCCP(=O)(O)O)c1=O [B-18, (4-(8-(2-Bromophenethyl)-7-methyl-2,6-dioxo-1-(prop-2-yn-1-yl)-1,2,6,7-tetrahydro-3H-purin-3-yl)butyl)phosphonic acid]

- Emax (MRGPRX4-83S [3]; Table 3): 113%
- EC50 (MRGPRX4-83S [3]; Table 3): 0.0487 ± 0.0201 nM
- Emax (MRGPRX4-83S [4]; Table 3): 113%
- EC50 (MRGPRX4-83S [4]; Table 3): 0.000543 ± 0.000186 µM
SMILES: C#CCn1c(=O)c2c(nc(CCc3c(C)cccc3C)n2CC)n(CCCCP(=O)(O)O)c1=O [B-33, (4-(8-(2,6-Dimethylphenethyl)-7-ethyl-2,6-dioxo-1-(prop-2-yn-1-yl)-1,2,6,7-tetrahydro-3H-purin-3-yl)butyl)phosphonic acid]
